Reference: patent US12304890B2, “R-type pyridyloxycarboxylic acid, salt and ester derivative thereof, and preparation method therefor, and herbicidal composition and application thereof” (Qingdao Kingagroot Chemical Compound Co., Ltd., priority 2018, dated 2025)

Legend:
Format in all cases: in vivo
Digitaria sanguinalis = test: Post-emergence test experiment, Digitaria sanguinalis; details: for Digitaria sanguinalis, activity level (growth inhibition rate) / inhibition at 200 g/ha: 200 g a.i./ha, weed resistant to cyhalofop-butyl; for Activity level (growth inhibition rate), Digitaria sanguinalis: 1000 g a.i./ha, 3 weeks in greenhouse, fresh weight inhibition
How it was run: (§1)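 Greenhouse-grown plants sprayed at the 2-3 leaf stage, 2 weeks after sowing, with compound in acetone/tween-80 diluted in water plus 1.5 L/ha methyl oleate emulsifiable concentrate as synergist. Effect scored 3 weeks later as fresh weight inhibition rate.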

[1] = system: Monocotyledonous and dicotyledonous weed seeds and main crop seeds; test: Post-emergence test experiment, other weeds and crops (Table 4, 1000 g a.i./ha); details: 3 weeks in greenhouse, fresh weight inhibition
How it was run: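 Weed and crop seeds (wheat, corn, rice, soybean, cotton, oilseed, millet, sorghum) sown in soil pots in a greenhouse and sprayed at 2-3 leaf stage, 2 weeks after sowing. Compound in acetone/tween-80 with methyl oleate concentrate (1.5 L/ha) as synergist. Effect recorded as fresh-weight growth inhibition rate.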

[2] = system: Semen Euphorbiae Lathyridis; test: Post-emergence test experiment, Semen Euphorbiae Lathyridis; details: for Semen Euphorbiae Lathyridis, activity level (growth inhibition rate) / inhibition at 200 g/ha: 200 g a.i./ha, weed resistant to cyhalofop-butyl
Description: (§2) The above described growth inhibition rate is fresh weight inhibition rate.
(§3) Post-emergence test experiment: Monocotyledonous and dicotyledonous weed seeds and main crop seeds (i. e. wheat, corn, rice, soybean, cotton, oilseed, millet and sorghum.) were put into a plastic pot loaded with soil. Then covered with 0.5-2 cm soil, the seeds were allowed to grow in good greenhouse environment. The test plants were treated at 2-3 leaf stage 2 weeks after sowing. The test compounds of the invention were dissolved with acetone respectively, then added with tween-80, and using 1.5 liters per hectare of an emulsible concentrate of methyl oleate as a synergist, and diluted by certain amount of water to certain concentration. The solution was sprayed to the plants with a sprayer. Then the plants were cultured for 3 weeks in the greenhouse, and the experiment result of weed controlling effect was listed in tables 4-5.

Echinochloa crusgalli = test: Post-emergence test experiment, Echinochloa crusgalli; details: for Echinochloa crusgalli, activity level (growth inhibition rate) / inhibition at 200 g/ha: 200 g a.i./ha, weed resistant to ALS inhibitor and ACCe herbicides; for Activity level (growth inhibition rate), Echinochloa crusgalli: 1000 g a.i./ha, 3 weeks in greenhouse, fresh weight inhibition
How it was run: as §1

rice = test: Post-emergence test experiment, rice (crop selectivity); details: 3 weeks
Description: as §2, §3

[3] = Echinochloa crus-galli, 504 h, 3 weeks, read-out: Echinochloa crusgalli, activity level (growth inhibition rate)
[4] = Digitaria sanguinalis, 504 h, 3 weeks, read-out: Digitaria sanguinalis, activity level (growth inhibition rate)
[5] = 504 h, 3 weeks, read-out: Semen Euphorbiae Lathyridis, activity level (growth inhibition rate)

| SMILES | Activity level (growth inhibition rate), Digitaria sanguinalis (Digitaria sanguinalis) | Activity level (growth inhibition rate), Abutilon theophrasti Medic. [1] | Activity level (growth inhibition rate), Galium aparine [1] | Activity level (growth inhibition rate), Monochoria Vaginalis [1] | Activity level (growth inhibition rate), Echinochloa crusgalli (Echinochloa crusgalli) | inhibition at 200 g/ha (Echinochloa crusgalli; [3]) [%] | inhibition at 200 g/ha (Digitaria sanguinalis; [4]) [%] | inhibition at 200 g/ha [2, 5] [%] | also measured |
| --- | --- | --- | --- | --- | --- | --- | --- | --- | --- |
| COC(=O)[C@@H](C)Oc1ncc(Cl)c(N)c1Cl [Compound 2-30] | 5 (Level 5: the growth inhibition rate is greater than 85%) | 5 (Level 5: the growth inhibition rate is greater than 85%) | 5 (Level 5: the growth inhibition rate is greater than 85%) | 5 (Level 5: the growth inhibition rate is greater than 85%) | 5 (Level 5: the growth inhibition rate is greater than 85%) | – | – | – | Digitaria sanguinalis, activity level (growth inhibition rate) (Digitaria sanguinalis; 3 weeks): 5 (Level 5: the growth inhibition rate is greater than 85%); Semen Euphorbiae Lathyridis, activity level (growth inhibition rate) ([2]; 3 weeks): 4 (Level 4: the growth inhibition rate is equal to or greater than 60% and less than 85%); Echinochloa crusgalli, activity level (growth inhibition rate) (Echinochloa crusgalli; 3 weeks): 4 (Level 4: the growth inhibition rate is equal to or greater than 60% and less than 85%) |
| CCSC(=O)[C@@H](C)Oc1nc(F)c(Cl)c(N)c1Cl [Compound 2-72] | 5 (Level 5: the growth inhibition rate is greater than 85%) | 5 (Level 5: the growth inhibition rate is greater than 85%) | 5 (Level 5: the growth inhibition rate is greater than 85%) | 5 (Level 5: the growth inhibition rate is greater than 85%) | 5 (Level 5: the growth inhibition rate is greater than 85%) | – | – | – | Digitaria sanguinalis, activity level (growth inhibition rate) (Digitaria sanguinalis; 3 weeks): 5 (Level 5: the growth inhibition rate is greater than 85%); Semen Euphorbiae Lathyridis, activity level (growth inhibition rate) ([2]; 3 weeks): 5 (Level 5: the growth inhibition rate is greater than 85%); Echinochloa crusgalli, activity level (growth inhibition rate) (Echinochloa crusgalli; 3 weeks): 5 (Level 5: the growth inhibition rate is greater than 85%); rice, activity level (growth inhibition rate) (rice; 200 g a.i./ha): 0 (Level 0: the growth inhibition rate is less than 5%) |
| CCCCCSC(=O)[C@@H](C)Oc1nc(F)c(Cl)c(N)c1Cl [Compound 2-86] | 5 (Level 5: the growth inhibition rate is greater than 85%) | 5 (Level 5: the growth inhibition rate is greater than 85%) | 5 (Level 5: the growth inhibition rate is greater than 85%) | 5 (Level 5: the growth inhibition rate is greater than 85%) | 5 (Level 5: the growth inhibition rate is greater than 85%) | – | – | – | Digitaria sanguinalis, activity level (growth inhibition rate) (Digitaria sanguinalis; 3 weeks): 5 (Level 5: the growth inhibition rate is greater than 85%); Semen Euphorbiae Lathyridis, activity level (growth inhibition rate) ([2]; 3 weeks): 5 (Level 5: the growth inhibition rate is greater than 85%); Echinochloa crusgalli, activity level (growth inhibition rate) (Echinochloa crusgalli; 3 weeks): 5 (Level 5: the growth inhibition rate is greater than 85%); rice, activity level (growth inhibition rate) (rice; 200 g a.i./ha): 0 (Level 0: the growth inhibition rate is less than 5%) |
| CC(C)=NOC(=O)C(C)Oc1nc(F)c(Cl)c(N)c1Cl (stereo not drawn) [Compound 2-292] | 5 (Level 5: the growth inhibition rate is greater than 85%) | 5 (Level 5: the growth inhibition rate is greater than 85%) | 5 (Level 5: the growth inhibition rate is greater than 85%) | 5 (Level 5: the growth inhibition rate is greater than 85%) | 5 (Level 5: the growth inhibition rate is greater than 85%) | – | – | – | Digitaria sanguinalis, activity level (growth inhibition rate) (Digitaria sanguinalis; 3 weeks): 5 (Level 5: the growth inhibition rate is greater than 85%); Semen Euphorbiae Lathyridis, activity level (growth inhibition rate) ([2]; 3 weeks): 5 (Level 5: the growth inhibition rate is greater than 85%); Echinochloa crusgalli, activity level (growth inhibition rate) (Echinochloa crusgalli; 3 weeks): 5 (Level 5: the growth inhibition rate is greater than 85%) |
| COC(=O)[C@@H](C)Oc1nc(F)c(Cl)c(NC(=O)c2ccccc2)c1Cl [Compound 2-379] | 5 (Level 5: the growth inhibition rate is greater than 85%) | 5 (Level 5: the growth inhibition rate is greater than 85%) | 5 (Level 5: the growth inhibition rate is greater than 85%) | 5 (Level 5: the growth inhibition rate is greater than 85%) | 5 (Level 5: the growth inhibition rate is greater than 85%) | – | – | – | – |
| CC(C)=NOCCOC(=O)[C@@H](C)Oc1nc(C)c(Cl)c(N)c1Cl [Compound 2-386] | 5 (Level 5: the growth inhibition rate is greater than 85%) | 5 (Level 5: the growth inhibition rate is greater than 85%) | 5 (Level 5: the growth inhibition rate is greater than 85%) | 5 (Level 5: the growth inhibition rate is greater than 85%) | 5 (Level 5: the growth inhibition rate is greater than 85%) | – | – | – | – |
| COC(=O)[C@@H](C)Oc1nc(F)c(Cl)c(NCc2ccc(C(F)(F)F)o2)c1Cl [Compound 2-387] | 5 (Level 5: the growth inhibition rate is greater than 85%) | 5 (Level 5: the growth inhibition rate is greater than 85%) | 5 (Level 5: the growth inhibition rate is greater than 85%) | 5 (Level 5: the growth inhibition rate is greater than 85%) | 5 (Level 5: the growth inhibition rate is greater than 85%) | – | – | – | – |
| COc1cc(OC)nc(Oc2cccc(Oc3nc(OC)cc(OC)n3)c2C(=O)O)n1 [bispyribac-sodium, reference compound] | – | – | – | – | – | – | – | – | inhibition at 100 g/ha (Digitaria sanguinalis; Digitaria sanguinalis, 504 h, 100 g a.i./ha, 3 weeks, resistant weed, read-out: Digitaria sanguinalis, activity level (growth inhibition rate)): 5 to 20%; inhibition at 100 g/ha ([2]; 504 h, 100 g a.i./ha, 3 weeks, resistant weed, read-out: Semen Euphorbiae Lathyridis, activity level (growth inhibition rate)): < 5%; inhibition at 100 g/ha (Echinochloa crusgalli; Echinochloa crus-galli, 504 h, 100 g a.i./ha, 3 weeks, resistant weed, read-out: Echinochloa crusgalli, activity level (growth inhibition rate)): 5 to 20% |
| CCCCOC(=O)[C@@H](C)Oc1ccc(Oc2ccc(C#N)cc2F)cc1 [cyhalofop-butyl, reference compound] | – | – | – | – | – | – | – | – | inhibition at 300 g/ha (Digitaria sanguinalis; Digitaria sanguinalis, 504 h, read-out: Digitaria sanguinalis, activity level (growth inhibition rate)): 5 to 20%; inhibition at 300 g/ha ([2]; 504 h, read-out: Semen Euphorbiae Lathyridis, activity level (growth inhibition rate)): 5 to 20%; inhibition at 300 g/ha (Echinochloa crusgalli; Echinochloa crus-galli, 504 h, read-out: Echinochloa crusgalli, activity level (growth inhibition rate)): 5 to 20%; rice, activity level (growth inhibition rate) (rice; 300 g a.i./ha): 0 (Level 0: the growth inhibition rate is less than 5%) |
| CC(Oc1nc(F)c(Cl)c(N)c1Cl)C(=O)OCC1CCCO1 (stereo not drawn) [drawing 482, reference compound] | – | – | – | – | – | 40 to 60 | – | – | rice, activity level (growth inhibition rate) (rice; 200 g a.i./ha): 0 (Level 0: the growth inhibition rate is less than 5%) |
| CC(Oc1nc(Cl)c(Cl)c(N)c1Cl)C(=O)O (stereo not drawn) [reference compound] | – | – | – | – | – | 20 to 40 | 40 to 60 | 40 to 60 | – |
| C[C@H](Oc1nc(Cl)c(Cl)c(N)c1Cl)C(=O)O [reference compound] | – | – | – | – | – | 5 to 20 | 5 to 20 | 5 to 20 | – |
| CC(Oc1nc(F)c(Cl)c(N)c1Cl)C(=O)O (stereo not drawn) [reference compound] | – | – | – | – | – | 20 to 40 | 40 to 60 | 40 to 60 | rice, activity level (growth inhibition rate) (rice; 200 g a.i./ha): 2 (Level 2: the growth inhibition rate is equal to or greater than 20% and less than 40%) |
| C[C@H](Oc1nc(F)c(Cl)c(N)c1Cl)C(=O)O [reference compound] | – | – | – | – | – | 5 to 20 | 5 to 20 | 5 to 20 | – |
| COC(=O)C(C)Oc1ncc(Cl)c(N)c1Cl (stereo not drawn) [reference compound] | – | – | – | – | – | 20 to 40 | 40 to 60 | 20 to 40 | – |
| COC(=O)[C@H](C)Oc1ncc(Cl)c(N)c1Cl [reference compound] | – | – | – | – | – | < 5 | < 5 | < 5 | – |
| CCOC(=O)C(C)Oc1nc(F)c(Cl)c(N)c1Cl (stereo not drawn) [reference compound] | – | – | – | – | – | 20 to 40 | 20 to 40 | 40 to 60 | rice, activity level (growth inhibition rate) (rice; 200 g a.i./ha): 1 (Level 1: the growth inhibition rate is equal to or greater than 5% and less than 20%) |
| CCOC(=O)[C@H](C)Oc1nc(F)c(Cl)c(N)c1Cl [reference compound] | – | – | – | – | – | 5 to 20 | 5 to 20 | 5 to 20 | – |
